According to PubChem BioAssay (NCI):
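Protocol summary: plate cells (96-well), add compound at 5 concentrations, incubate 48 h, interpolate endpoints linearly. GI50 = concentration required for 50% inhibition of growth. At the TGI there is no net growth.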

Columns and labels:
Experiment in all cases: NCI tumour cell line growth inhibition, 48 h
786-0 renal = tested on: 786-0 renal
HOP-92 NSCLC = tested on: HOP-92 NSCLC
U251 CNS = tested on: U251 CNS
A549 NSCLC = tested on: A549 NSCLC
UACC-62 melanoma = tested on: UACC-62 melanoma
SK-MEL-5 melanoma = tested on: SK-MEL-5 melanoma
UACC-257 melanoma = tested on: UACC-257 melanoma
KM12 colon = tested on: KM12 colon
SNB-75 CNS = tested on: SNB-75 CNS
EKVX NSCLC = tested on: EKVX NSCLC

Row | Compound | TGI (786-0 renal) | TGI (HOP-92 NSCLC) | TGI (U251 CNS) | TGI (A549 NSCLC) | TGI (UACC-62 melanoma) | TGI (SK-MEL-5 melanoma) | TGI (UACC-257 melanoma) | TGI (KM12 colon) | TGI (SNB-75 CNS) | GI50 (EKVX NSCLC) | TGI (EKVX NSCLC) | GI50 (786-0 renal) | GI50 (HOP-92 NSCLC) | GI50 (U251 CNS) | GI50 (A549 NSCLC) | GI50 (UACC-62 melanoma) | GI50 (SK-MEL-5 melanoma) | GI50 (UACC-257 melanoma) | GI50 (KM12 colon) | GI50 (SNB-75 CNS)
1 | N#CC(C#N)=C(N)/C(C#N)=C\c1ccnc2ccccc12 | 37.2 µM | 88 µM | 43.1 µM | > 100 µM | 38.9 µM | 34 µM | 58.6 µM | > 100 µM | 70.7 µM | – | – | – | – | – | – | – | – | – | – | –
2 | COc1ccc(/C=C/c2cc(OC)c(OC)c(OC)c2)cc1NC(=O)/C=C/c1ccc(F)cc1 | > 100 µM | > 100 µM | > 100 µM | > 100 µM | > 100 µM | > 100 µM | > 100 µM | > 100 µM | – | 7.4 µM | > 100 µM | 4.29 µM | 4.36 µM | 3.17 µM | 3.41 µM | 3.32 µM | 2.72 µM | 3.02 µM | 2.96 µM | –
3 | CC(=O)N/C(=C\c1ccc(/C=C(\NC(C)=O)c2nc3ccc(Cl)cc3[nH]2)cc1)c1nc2ccccc2[nH]1 | > 100 µM | > 100 µM | > 100 µM | > 100 µM | > 100 µM | > 100 µM | – | > 100 µM | > 100 µM | – | > 100 µM | – | – | – | – | – | – | – | – | –
4 | Cc1ccc(C(=O)c2oc3ccc4c(C)cc(=O)oc4c3c2C)cc1 | > 100 µM | 95.2 µM | > 100 µM | > 100 µM | > 100 µM | > 100 µM | > 100 µM | > 100 µM | 39.4 µM | – | – | 5.96 µM | 27.1 µM | 3.64 µM | 4.97 µM | 2.66 µM | 2.69 µM | 35.9 µM | 63.3 µM | 4.19 µM
5 | COc1cc(OC)c(/C=C/c2ccc3ccccc3[n+]2C)c(OC)c1 | 16.8 µM | 4.51 µM | 8.97 µM | 13.9 µM | 3.08 µM | 1.95 µM | 3.19 µM | 1.99 µM | 12.4 µM | – | – | 3.16 µM | 0.951 µM | 0.323 µM | 0.748 µM | 1.13 µM | 0.567 µM | 0.49 µM | 0.322 µM | 0.586 µM
6 | C=CCCCCCCCCCCCC1CCC(CC)N1 (stereo unspecified) | 21.8 µM | – | 25.5 µM | 24.8 µM | 29.4 µM | 25.5 µM | 28 µM | 13.1 µM | 33.9 µM | – | 31.4 µM | – | – | – | – | – | – | – | – | –
7 | CN(C)c1ccc(/C=C2\Oc3cc(O)ccc3C2=O)cc1 | > 100 µM | – | > 100 µM | > 100 µM | > 100 µM | > 100 µM | > 100 µM | > 100 µM | > 100 µM | – | > 100 µM | – | – | – | – | – | – | – | – | –
8 | O=C(Nc1ccccc1)c1ccc(Cl)c([N+](=O)[O-])c1 | 20.8 µM | – | > 100 µM | > 100 µM | 24.9 µM | 20 µM | 48.4 µM | 12.7 µM | 71.6 µM | – | > 100 µM | – | – | – | – | – | – | – | – | –
9 | COc1cc(-c2nc3ccc(C)cc3[nH]2)ccc1OCC(=O)N=Nc1c(O)[nH]c2ccccc12 | 3.24 µM | 3.28 µM | – | – | 3.31 µM | 3.52 µM | – | 3.54 µM | 2.91 µM | 12.7 µM | > 100 µM | 1.76 µM | 1.56 µM | – | – | 1.76 µM | 1.82 µM | – | 1.83 µM | 1.07 µM
10 | CCN(CC)CCn1c2c3ccccc3ccc2c2oc(=O)c3ccccc3c21 | 58.5 µM | > 100 µM | > 100 µM | > 100 µM | > 100 µM | – | > 100 µM | > 100 µM | 42.8 µM | – | > 100 µM | – | – | – | – | – | – | – | – | –
11 | COc1ccc(NC(=O)C2C(=O)N(c3ccc(OC)cc3)C(=O)/C2=N/O)cc1 (stereo unspecified) | 41.9 µM | 47.8 µM | 42.9 µM | > 78.7 µM | 45.8 µM | – | > 80.5 µM | 56.7 µM | > 73.7 µM | – | 97.2 µM | – | – | – | – | – | – | – | – | –
12 | c1cnc2c(c1)-n1cccc1C1(CCSCC1)NN2 | > 100 µM | – | – | > 100 µM | – | > 100 µM | > 100 µM | > 100 µM | > 100 µM | – | > 100 µM | – | – | – | – | – | – | – | – | –
13 | COc1ccc2c(c1)sc1nc(-c3ccccc3)c(-c3ccsc3)n12 | > 100 µM | > 100 µM | > 100 µM | > 100 µM | > 100 µM | 47.4 µM | > 100 µM | > 100 µM | – | 7.76 µM | > 100 µM | 7.58 µM | 9.89 µM | 3.72 µM | 5.02 µM | 3.52 µM | 3.34 µM | > 100 µM | 3.7 µM | –
14 | Cc1nc2ccc(C(F)(F)F)cc2nc1Nc1ccc(Cl)c(Cl)c1 | 16.1 µM | 12.1 µM | 19.4 µM | 21.6 µM | 29.1 µM | – | 25.4 µM | – | – | – | – | – | – | – | – | – | – | – | – | –
15 | COC(=O)c1c(-c2ccccc2)cc2c3cc(-c4ccccc4)c(C(=O)OC)n3c3ccccc3n12 | > 100 µM | – | > 100 µM | > 100 µM | > 100 µM | > 100 µM | > 100 µM | > 100 µM | 91.6 µM | – | > 100 µM | – | – | – | – | – | – | – | – | –
16 | O=[N+]([O-])c1c(/C=N/Nc2ccccc2)oc(-c2ccc3c(c2)OCO3)c1-c1ccc2c(c1)OCO2 | > 100 µM | > 100 µM | – | > 100 µM | > 100 µM | – | > 100 µM | – | > 100 µM | – | > 100 µM | – | – | – | – | – | – | – | – | –
17 | O=c1cc(-c2ccccc2)[nH]c2cc(Cl)cc(Cl)c12 | 60 µM | 58.3 µM | > 100 µM | > 100 µM | > 100 µM | > 100 µM | > 100 µM | > 100 µM | 30 µM | – | – | – | – | – | – | – | – | – | – | –
18 | CCOc1ccccc1NC(=O)/C=C1\NC(=O)CS1 | > 100 µM | > 100 µM | > 100 µM | > 100 µM | > 100 µM | > 100 µM | – | > 100 µM | 98.7 µM | – | > 100 µM | – | – | – | – | – | – | – | – | –
19 | Cc1cc2c(CC(=O)O)[nH]nc2c(C(=O)O)c1C | > 100 µM | > 100 µM | > 100 µM | > 100 µM | > 100 µM | – | > 100 µM | – | > 100 µM | – | > 100 µM | – | – | – | – | – | – | – | – | –
20 | C=CCn1c(C)nc2cc(Nc3nc(Nc4ccc5nc(C)n(CC=C)c5c4)c4ccccc4n3)ccc21 | 1.08 µM | 2.08 µM | – | – | – | 2.64 µM | – | 0.659 µM | 2.3 µM | – | – | 0.312 µM | 0.78 µM | – | – | – | 1.36 µM | – | 0.254 µM | 0.745 µM
21 | Cc1cc(/C=C2\SC(=Nc3ccccc3)N(C3CCCC3)C2=O)c(C)n1-c1ccc(Cl)cc1 | > 100 µM | > 100 µM | > 100 µM | > 100 µM | > 100 µM | > 100 µM | > 100 µM | > 100 µM | > 100 µM | – | – | > 100 µM | > 100 µM | > 100 µM | > 100 µM | > 100 µM | > 100 µM | > 100 µM | > 100 µM | > 100 µM
22 | Cc1cc(S(=O)(=O)Nc2nc(N)nc(N3N=CCC3C)n2)c(S)cc1Cl (stereo unspecified) | > 10 µM | > 10 µM | > 10 µM | > 10 µM | – | > 10 µM | > 10 µM | > 10 µM | > 10 µM | – | > 10 µM | – | – | – | – | – | – | – | – | –
23 | Nc1c(C(=O)c2ccccc2)sc2nc(-c3cccs3)ccc12 | 7.67 µM | 7.31 µM | 14.1 µM | 4.8 µM | 10.4 µM | 3.13 µM | – | 5.6 µM | 1.42 µM | 0.285 µM | 17.5 µM | 0.725 µM | 0.486 µM | 0.281 µM | 0.492 µM | 0.0788 µM | 0.292 µM | – | 0.103 µM | 0.187 µM
24 | COc1cc([C@H](C)c2ccc3ccccc3c2)cc(OC)c1OC | 20 µM | 53 µM | 21.1 µM | > 100 µM | > 100 µM | 11.1 µM | 44 µM | > 100 µM | – | 0.941 µM | > 100 µM | 0.536 µM | 0.908 µM | 0.333 µM | 0.595 µM | 0.499 µM | 0.26 µM | 1.97 µM | 0.276 µM | –
25 | CC1=CSC2=NC(c3ccc(Cl)c(Cl)c3)=CC(c3ccc(Cl)cc3)N12 (stereo unspecified) | > 100 µM | > 100 µM | > 100 µM | > 100 µM | > 100 µM | > 100 µM | > 100 µM | > 100 µM | > 100 µM | – | – | > 100 µM | > 100 µM | > 100 µM | > 100 µM | > 100 µM | > 100 µM | > 100 µM | > 100 µM | > 95.3 µM
26 | CCOC(=O)CCC(=O)C1c2cccc(O)c2C(=O)c2c(O)cccc21 | 3.26 µM | 3.23 µM | 1.53 µM | 2.18 µM | 1.42 µM | 1.4 µM | 3.3 µM | 2.2 µM | 2.33 µM | – | – | – | – | – | – | – | – | – | – | –
27 | C=CCNC(=S)N1CC(C)C(=O)Nc2ccccc21 (stereo unspecified) | > 100 µM | – | > 100 µM | > 100 µM | > 100 µM | > 100 µM | – | > 100 µM | > 100 µM | – | > 100 µM | – | – | – | – | – | – | – | – | –
28 | Nc1ccc(C(=O)N/C(=C\C=C\c2ccco2)c2nc3[nH]c(=S)[nH]c(=O)c3[nH]2)cc1 | > 100 µM | > 100 µM | > 100 µM | > 100 µM | – | > 100 µM | – | > 100 µM | – | – | > 100 µM | – | – | – | – | – | – | – | – | –
29 | Cc1cc2nc3c(C(OC4OC(CO)C(O)C(O)C4O)C(O)CO)nn(-c4ccccc4)c3nc2cc1C (stereo unspecified) | > 100 µM | – | > 100 µM | – | > 100 µM | – | > 100 µM | > 100 µM | > 100 µM | – | > 100 µM | – | – | – | – | – | – | – | – | –
